Read-outs that look alike come from different tables or passages of the source.
How the values were obtained:
[1] = target: T1, human PPARγ (Homo sapiens, UniProt P37231); experiment: Membrane-bound PPARγ binding assay ([3H]rosiglitazone competition, filtration); conditions: competition with [3H]rosiglitazone (4 nM), 180 min at 4 °C; read-out: Ki (nM), hPPARγ binding affinity
T1 sequence (P37231 235-505 limits assumed): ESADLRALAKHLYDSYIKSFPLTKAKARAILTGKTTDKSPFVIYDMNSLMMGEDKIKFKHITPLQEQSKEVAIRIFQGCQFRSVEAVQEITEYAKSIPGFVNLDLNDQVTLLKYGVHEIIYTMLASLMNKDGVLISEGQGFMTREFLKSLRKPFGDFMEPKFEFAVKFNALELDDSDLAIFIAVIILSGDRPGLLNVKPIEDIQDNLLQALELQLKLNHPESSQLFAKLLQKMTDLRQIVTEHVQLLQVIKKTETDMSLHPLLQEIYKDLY
Protocol: The membrane-associated PPARγ was used as the biological source as previously described. Binding buffer consisted of 10 mM Tris/HCl, pH 8.2, containing 50 mM KCl and 1 mM dithiothreitol. […] Radioactivity was measured in a TopCount apparatus (Packard).

[2] = target: T2, human PPARα (Homo sapiens, UniProt Q07869); experiment: Gene reporter (transactivation) assay, Cos-7 cells transfected with pGal4-hPPARα; assay type: cell-based; conditions: for Emax: COS-7, 24 h, read-out: hPPAR gene reporter αGal4 (%); for Emax / hPPAR gene reporter αGal4 (%): Emax relative to maximum activation with WY14643 (10 µM) = 100%; for EC50: GAL4 chimeric hPPARα, read-out: hPPAR gene reporter αEC50; for EC50 / hPPAR gene reporter αGal4 (%): 24 h;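 as to all read-outs here: luciferase signal from a Gal4-driven reporter normalised to cotransfected β-galactosidase activity, cells exposed to rising compound concentrations with DMSO vehicle as control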
T2 construct: expressed in transfected cells; host or cells: Cos-7
T2 sequence (Q07869 239-466 limits assumed): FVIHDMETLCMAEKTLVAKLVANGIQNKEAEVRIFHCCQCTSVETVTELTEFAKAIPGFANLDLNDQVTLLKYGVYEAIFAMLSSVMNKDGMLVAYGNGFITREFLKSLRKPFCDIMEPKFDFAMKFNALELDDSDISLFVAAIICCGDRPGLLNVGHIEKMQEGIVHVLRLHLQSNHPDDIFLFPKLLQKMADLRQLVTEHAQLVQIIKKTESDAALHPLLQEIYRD
Protocol: (§1) Cos-7 cells were transiently transfected with luciferase reporter plasmid (pG5-TK-pGL3) in the presence of pGal4-hPPARα or pGal4-hPPARγ (these vectors express chimeric proteins containing the Gal4 DNA-binding domain fused to the human PPARα or PPARγ ligand binding domain coding sequence) expression vector. […] Cells were transfected in OptiMEM without FCS for 3 h at 37°, using polyethylenimine (PEI), with reporter and expression plasmids, as stated in figure’s legend. The plasmid pBluescript (Stratagene, La Jolla, CA) was used as carrier DNA to set the final amount of DNA to 5.5 µg/dish. The pCMV- ß-galactosidase expression plasmid was cotransfected as a control for transfection efficiency. […] After 16 h, cells were trypsinised and seeded in 96-well plates at the density of 2 × 10^4 cells/well and incubated for 6 h in 10% FCS containing DMEM. Cells were then incubated for 24 h in DMEM containing 0.2% FCS and increasing concentrations of the compound tested or vehicle (DMSO). At the end of the experiment, cells were washed once with ice-cold PBS and the luciferase and the β–galactosidase assays were performed as described previously[20]. Cells were incubated 24 h in the presence of indicated concentrations of compound. Luciferase activity was measured and normalised to internal control β-galactosidase activity. […] EC50 were estimated using Prism software (GraphPad). All transfection experiments were performed at least three times.

[3] = target: T3, human PPARγ (Homo sapiens, UniProt P37231); experiment: Gene reporter (transactivation) assay, Cos-7 cells transfected with pGal4-hPPARγ; assay type: cell-based; conditions: for Emax: COS-7, 24 h, read-out: hPPAR gene reporter γGal4 (%); for EC50: GAL4 chimeric hPPARγ, read-out: hPPAR gene reporter γEC50;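 as to all read-outs here: luciferase reporter (pG5-TK) activity normalised to cotransfected β-galactosidase, cells exposed to increasing compound concentrations in DMEM with 0.2% FCS, DMSO vehicle as control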
T3 construct: expressed in transfected cells; host or cells: Cos-7
T3 sequence (P37231 238-503 limits assumed): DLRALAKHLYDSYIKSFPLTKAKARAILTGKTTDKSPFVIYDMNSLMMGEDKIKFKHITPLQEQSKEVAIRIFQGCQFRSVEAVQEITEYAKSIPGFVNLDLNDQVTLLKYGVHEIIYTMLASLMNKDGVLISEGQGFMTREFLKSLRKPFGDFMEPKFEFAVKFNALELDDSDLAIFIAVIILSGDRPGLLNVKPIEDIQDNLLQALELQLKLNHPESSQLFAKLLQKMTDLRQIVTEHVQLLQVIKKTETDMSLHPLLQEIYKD
Protocol: as §1

[4] = tested on: ob/ob mice; experiment: In vivo ob/ob mice: glycaemia, triglyceridemia, insulinemia, body weight; conditions: oral, 4 days, synthesised compounds 8.4 µMkg^−1, references 3 mgkg^−1; for ΔBW (body weight variation between day 0 and day 4): expressed in % of rosiglitazone in the same study (= 100%), ob/ob mice; for Change (%) Gly (glycemia) / Change (%) Ins (insulin) / Change (%) TG (triglycerides): percent change versus control, ob/ob mice at day 4;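 as to all read-outs here: male ob/ob mice aged 10–12 weeks, given the compound once daily by oral gavage as a 1% hydroxyethylcellulose suspension, 8–12 animals per group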
Protocol: The glucose- and triglyceride-lowering activities of the compounds prepared were then tested using 10–12-week-old male ob/ob mice. […] Mice had access to filtered (0.22 mm) tap water ad libitum and irradiated pelleted laboratory chow (transbreed, Special Diet Services, England) throughout the study. Compounds were prepared as a suspension in 1% hydroxyethylcellulose (HEC) for oral administration (10 mLkg^−1). The mice (n = 8–12 per group) were dosed by gavage daily between 15:00 and 17:00 for 4 days. Randomisation was performed based on glycaemia values. The body weight gain (DBW in grams) of the animals was determined by measuring the difference between body weight at the beginning and end of the study for each mouse. At day 5 between 9:00 and 11:00 the mice were weighed, and blood samples were collected into heparin-containing tubes by retro-orbital puncture (500 mL per mouse). […] Plasma samples were prepared by centrifugation (2000 g for 10 min), and stored at −20 °C. For triglycerides and insulin determination, the percent change in plasma level in the treated group was calculated relative to the mean plasma level in the vehicle-treated group. ANOVA, followed by Dunnett’s comparison test (one-tailed) was used to estimate significant differences between the plasma glycaemia, triglycerides, insulin, and DBW values between the control group and the individual compound-treated groups.
As a side effect index, body weight was also measured daily, and body weight variation was calculated as a percentage of the difference in body weight between days 4 and 0.

[5] = Emax relative to maximum activation with rosiglitazone (1 μM) = 100%, Cos-7 cells, 24 h

## CCO[C@@H](Cc1ccc(OCCn2c(=O)sc3cc(/C(=N/OC)c4ccccc4)ccc32)cc1)C(=O)O [Compound 44a, (S)-3-{4-[2–(6-[(E)-methoxyimino-phenyl-methyl]-2-oxo-benzothiazol-3-yl)-ethoxy]-phenyl}-2-ethoxypropionic acid]
[1]
  Ki: 0.7 nM
[2]
  Emax: 154%
  EC50: 32 nM
[3]; [5]
  Emax: 115%
[3]; Cos-7 cells, 24 h
  EC50: 2 nM
[4]
  ΔBW (body weight variation between day 0 and day 4): 177%
  Change (%) Gly (glycemia): −46%
  Change (%) Ins (insulin): −81%
  Change (%) TG (triglycerides): −79%
other
  melting point: 151 to 152 °C

## CCO[C@@H](Cc1ccc(OCCn2c(=O)sc3cc(/C(=N/O)c4ccccc4)ccc32)cc1)C(=O)O [Compound 43a, (S)-3-{4-[2–(6-[(E)-hydroxyimino-phenyl-methyl]-2-oxo-benzothiazol-3-yl)-ethoxy]-phenyl}-2-ethoxypropionic acid]
[1]
  Ki: 0.5 nM
[2]
  Emax: 153%
[3]; [5]
  Emax: 123%
[3]; Cos-7 cells, 24 h
  EC50: 16 nM
[4]
  ΔBW (body weight variation between day 0 and day 4): 113%
  Change (%) Gly (glycemia): −55%
  Change (%) Ins (insulin): −29%
  Change (%) TG (triglycerides): −33%
other
  melting point: 84 to 85 °C

## CCOC(Cc1ccc(OCCN2C(=O)Cc3cc(C(=O)c4ccccc4)ccc32)cc1)C(=O)O (stereo not drawn) [Compound 37, 3-{4-[2–(5-benzoyl-2-oxo-2,3-dihydroindol-1-yl)ethoxy]phenyl}-2-ethoxypropionic acid]
[1]
  Ki: 6.5 nM
[2]
  Emax: 100%
[3]; [5]
  Emax: ≤ 75%
[3]; Cos-7 cells, 24 h
  EC50: 40 nM
other
  melting point: 68 to 70 °C

## CCOC(Cc1ccc(OCCn2c(=O)sc3ccc(C(=O)c4ccccc4)cc32)cc1)C(=O)O (stereo not drawn) [Compound 31, 3-{4-[2–(5-benzoyl-2-oxo-benzothiazol-3-yl)-ethoxy]-phenyl}-2-ethoxypropionic acid]
[1]
  Ki: 8 nM
[2]
  Emax: ≥ 80%
  EC50: 256 nM
[3]; Cos-7 cells, 24 h
  EC50: 61 nM
other
  melting point: 49 to 51 °C

## Cc1cccc(Nc2cc(Cl)nc(SCC(=O)O)n2)c1C [WY14643, reference compound]
[2]
  hPPAR gene reporter αGal4 (%): 100%

## COc1ccc(OC(=O)N(CC(=O)O)Cc2ccc(OCCc3nc(-c4ccccc4)oc3C)cc2)cc1 [mura, Muraglitazar, reference compound]
[2]
  Emax: 84%
  EC50: 595 nM
[3]
  Emax: 128%
[4]
  ΔBW (body weight variation between day 0 and day 4): 206%
  Change (%) Gly (glycemia): −46%
  Change (%) Ins (insulin): −46%
  Change (%) TG (triglycerides): −34%

## CN(CCOc1ccc(CC2SC(=O)NC2=O)cc1)c1ccccn1 (stereo not drawn) [rosi, Rosiglitazone, reference compound]
[4]
  ΔBW (body weight variation between day 0 and day 4): 100%
  Change (%) Gly (glycemia): −57%
  Change (%) Ins (insulin): −73%
  Change (%) TG (triglycerides): −46%

## O=C(O)C(Cc1ccc(OCCn2c(=O)sc3cc(C(=NO)c4ccccc4)ccc32)cc1)OCC(F)(F)F (mixture of isomers) [Compound 39b, 3-{4-[2–(6-[(Z/E)-hydroxyimino-phenyl-methyl]-2-oxo-benzothiazol-3-yl)-ethoxy]-phenyl}-2–(2,2,2-trifluoro)ethoxypropionic acid]
[1]
  Ki: 165 nM
[2]
  Emax: 29%
[3]; [5]
  Emax: 44%
[3]; Cos-7 cells, 24 h
  EC50: 10 nM
[4]
  ΔBW (body weight variation between day 0 and day 4): 75%
  Change (%) Gly (glycemia): −18%
  Change (%) Ins (insulin): 10%
  Change (%) TG (triglycerides): −30%
other
  melting point: 55 to 56 °C

## CCOC(Cc1ccc(OCCN2C(=O)CSc3cc(C(=O)c4ccccc4)ccc32)cc1)C(=O)O (stereo not drawn) [Compound 34, 3-{4-[2–(7-benzoyl-3-oxo-benzo[1, 4]thiazin-4-yl)-ethoxy]-phenyl}-2-ethoxypropionic acid]
[1]
  Ki: 4 nM
[2]
  Emax: 116%
  EC50: 2050 nM
[3]; [5]
  Emax: 97%
[3]; Cos-7 cells, 24 h
  EC50: 37 nM
other
  melting point: 58 to 60 °C

## CCO[C@H](Cc1ccc(OCCn2c(=O)sc3cc(/C(=N/OC)c4ccccc4)ccc32)cc1)C(=O)O [Compound 46a, (R)-3-{4-[2–(6-[(E)-methoxyimino-phenyl-methyl]-2-oxo-benzothiazol-3-yl)-ethoxy]-phenyl}-2-ethoxypropionic acid]
[1]
  Ki: 86 nM
[2]
  Emax: 124%
  EC50: 1480 nM
[3]; [5]
  Emax: 87%
[3]; Cos-7 cells, 24 h
  EC50: 558 nM
other
  melting point: 151 to 152 °C

## CCOC(Cc1ccc(OCCN2C(=O)C(F)(F)c3cc(C(=O)c4ccccc4)ccc32)cc1)C(=O)O (stereo not drawn) [Compound 38, 3-{4-[2–(5-benzoyl-3,3-difluoro-2-oxo-2,3-dihydroindol-1-yl)ethoxy]phenyl}-2-ethoxy-propionic acid]
[1]
  Ki: 4 nM
[2]
  Emax: 89%
[3]; [5]
  Emax: ≤ 75%
[3]; Cos-7 cells, 24 h
  EC50: 5 nM

## CCOC(Cc1ccc(OCCN2C(=O)COc3cc(C(=O)c4ccccc4)ccc32)cc1)C(=O)O (stereo not drawn) [Compound 36, 3-{4-[2–(7-benzoyl-3-oxo-benzo[1, 4]oxazin-4-yl)-ethoxy]-phenyl}-2-ethoxypropionic acid]
[1]
  Ki: 1 nM
[2]
  Emax: 80%
[3]; [5]
  Emax: > 100%
[3]; Cos-7 cells, 24 h
  EC50: 80 nM
other
  melting point: 36 to 38 °C

## CCOC(Cc1ccc(OCCN2C(=O)CSc3ccc(C(=O)c4ccccc4)cc32)cc1)C(=O)O (stereo not drawn) [Compound 33, 3-{4-[2–(6-benzoyl-3-oxo-benzo[1, 4]thiazin-4-yl)-ethoxy]-phenyl}-2-ethoxypropionic acid]
[1]
  Ki: 220 nM
[2]
  Emax: ≤ 20%
  EC50: 10000 nM
[3]; [5]
  Emax: ≤ 70%
[3]; Cos-7 cells, 24 h
  EC50: 219 nM
other
  melting point: 52 to 54 °C

## CON=C(c1ccccc1)c1ccc2c(c1)sc(=O)n2CCOc1ccc(C[C@@H](OCC(F)(F)F)C(=O)O)cc1 [Compound 46b, (R)-3-{4-[2–(6-[(E)-methoxyimino-phenyl-methyl]-2-oxo-benzothiazol-3-yl)-ethoxy]-phenyl}-2–(2,2,2-trifluoro)ethoxypropionic acid]
[1]
  Ki: 33 nM
[2]
  hPPAR gene reporter αGal4 (%): 117%
  EC50: 1660 nM
[3]; [5]
  hPPAR gene reporter γGal4 (%): 116%
[3]; Cos-7 cells, 24 h
  EC50: 9 nM

## CCOC(Cc1ccc(OCCN2C(=O)COc3ccc(C(=O)c4ccccc4)cc32)cc1)C(=O)O (stereo not drawn) [Compound 35, 3-{4-[2–(6-benzoyl-3-oxo-benzo[1, 4]oxazin-4-yl)-ethoxy]-phenyl}-2-ethoxypropionic acid]
[1]
  Ki: 3 nM
[2]
  Emax: 97%
[3]; [5]
  Emax: > 100%
[3]; Cos-7 cells, 24 h
  EC50: 2 nM
other
  melting point: 47 to 49 °C

## CON=C(c1ccccc1)c1ccc2c(c1)sc(=O)n2CCOc1ccc(C[C@H](OCC(F)(F)F)C(=O)O)cc1 [Compound 44b, (S)-3-{4-[2–(6-[(E)-methoxyimino-phenyl-methyl]-2-oxo-benzothiazol-3-yl)-ethoxy]-phenyl}-2–(2,2,2-trifluoro)ethoxypropionic acid]
[1]
  Ki: 3 nM
[2]
  hPPAR gene reporter αGal4 (%): 59%
  EC50: 525 nM
[3]; [5]
  hPPAR gene reporter γGal4 (%): 150%
[3]; Cos-7 cells, 24 h
  EC50: 0.9 nM
[4]
  ΔBW (body weight variation between day 0 and day 4): −17%
  Change (%) Gly (glycemia): −36%
  Change (%) Ins (insulin): −89%
  Change (%) TG (triglycerides): −69%

— paper PMC7006651, “Effect of 6-Benzoyl-benzothiazol-2-one scaffold on the pharmacological profile of α-alkoxyphenylpropionic acid derived PPAR agonists” (Journal of Enzyme Inhibition and Medicinal Chemistry, 2020)
